Measured values published in paper PMC9234671, “Molecular determinants of αVβ5 localization in flat clathrin lattices – role of αVβ5 in cell adhesion and proliferation” (Journal of Cell Science, 2022).
Entries after “also recorded” stand apart in the source; their conditions may differ. Blank lines part the entries; values can stand above or below the molecule they belong to. Ends that are not written are not given here.

Key:
Numb-PTB (20-175) = target: T1, Numb-PTB (20-175) (Homo sapiens, UniProt P49757); assay: Microscale thermophoresis (MST), Numb; format: binding
T1 construct: A pETNKI-6xhis-3C-Numb-PTB (20-175) construct was expressed in Rosetta2 (DE3) cells; 6xHis-3C (N, cleaved yes); made in house; host or cells: E. coli Rosetta2 (DE3)
T1 sequence (P49757 20-175): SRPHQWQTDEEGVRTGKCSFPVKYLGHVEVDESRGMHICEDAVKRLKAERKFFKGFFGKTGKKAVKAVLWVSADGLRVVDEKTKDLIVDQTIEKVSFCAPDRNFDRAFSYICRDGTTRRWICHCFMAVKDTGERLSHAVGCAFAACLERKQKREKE
Description: (§1) Fig. 2. Adaptor protein binding to integrin β subunits. (A) Colocalization of integrin chimeras fused to the promiscuous biotin ligase BirA* (green in merge) with vinculin (red; left panels) or clathrin (red; right panels) in PA-JEB/β4 keratinocytes. Actin is shown in blue. Nuclei are stained with DAPI (cyan). Scale bars: 20 μm. (B) Representative western blots of BioID assays performed using the integrin chimeras shown in A. Quantifications of ARH, Numb and talin signal intensities normalized to streptavidin-HRP levels are shown (n=3; bars show mean±s.d.). (C) Representative western blots of pulldown assays (from two repeats) using synthetic integrin β cytoplasmic domains in RAC-11P cell lysates.
A pETNKI-6xhis-3C-Numb-PTB (20-175) construct was expressed in Rosetta2 (DE3) cells for 18 h at 20°C. Cells were lysed (25 mM Tris-HCl pH 8.0, 10 mM imidazole, 200 mM NaCl, 1 mM TCEP, 5 μg/ml DNase) and sonicated, after which insoluble proteins and cell debris were removed by centrifugation (21,000 g for 30 min at 4°C). Soluble lysate was applied to a nickel Sepharose column and beads were washed with wash buffer (lysis buffer without DNase) before protein was eluted in wash buffer supplemented with 250 mM imidazole. The 6xhis tag was cleaved off by his-3C protease during dialysis against 25 mM Tris-HCl pH 8.0, 100 mM NaCl, 1 mM TCEP, 16 h at 4°C. Elution fractions were pooled, diluted with six volumes of 20 mM HEPES pH 7.5, 1 mM TCEP and applied to a 1 ml Resource S cation-exchange column (Cytiva). Protein was eluted in a NaCl gradient (50–700 mM) in 25 mM HEPES (pH 7.5). 6xhis-Numb-PTB was concentrated and further purified by size-exclusion chromatography (SEC70 column, Bio-Rad) in 25 mM Tris-HCl pH 8.0, 200 mM NaCl and 1 mM TCEP.
All MST measurements were performed on a Monolith NT.115 red-blue (Nanotemper, Munich, Germany) using premium-coated capillaries to reduce non-specific interaction of the proteins with the glass surface. […] Data was analyzed using the MO Affinity Analysis Software (Nanotemper).

full-length human ARH = target: T2, full-length human ARH (Homo sapiens, UniProt Q5SW96); assay: Microscale thermophoresis (MST), ARH; format: binding
T2 construct: The full-length human ARH gene was cloned into the pETNKI-6xhis-3C-LIC vector; made in house; host or cells: E. coli BL21(DE3)
T2 sequence (Q5SW96 1-308): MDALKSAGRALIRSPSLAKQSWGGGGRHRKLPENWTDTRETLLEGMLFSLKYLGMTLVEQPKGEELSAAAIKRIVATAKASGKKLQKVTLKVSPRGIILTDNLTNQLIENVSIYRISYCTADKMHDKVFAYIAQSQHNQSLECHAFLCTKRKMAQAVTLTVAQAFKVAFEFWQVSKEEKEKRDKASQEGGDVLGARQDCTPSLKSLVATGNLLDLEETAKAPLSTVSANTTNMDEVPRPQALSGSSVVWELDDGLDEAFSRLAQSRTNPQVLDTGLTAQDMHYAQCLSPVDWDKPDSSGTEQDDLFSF
Description: as §1
The full-length human ARH gene was cloned into the pETNKI-6xhis-3C-LIC vector ([Luna-Vargas et al., 2011]) and 6xhis–ARH protein was produced in Bl21(DE3) E. coli cells. Cells were grown at 37°C until an optical density at 600 nm (OD600) of 0.6 was reached. Temperature was reduced to 30°C and protein was expressed upon induction with 0.4 mM IPTG for 3.5 h. Cells were harvested and resuspended in lysis buffer (20 mM HEPES, pH 7.5, 200 mM NaCl, 1 mM TCEP and 5 μg ml^−1 DNase). After sonication, cell debris and insoluble proteins were removed by centrifugation (21,000 g for 30 min). 6xhis–ARH was purified from the soluble fraction using nickel Sepharose beads and eluted in 20 mM HEPES, pH 7.5, 200 mM NaCl, 1 mM TCEP and 250 mM imidazole. Fractions containing 6xhi–ARH were further purified on a SEC650 size exclusion column (Bio-Rad), equilibrated with 20 mM HEPES, pH 7.5, 100 mM NaCl and 1 mM TCEP.
All MST measurements were performed on a Monolith NT.115 red-blue (Nanotemper, Munich, Germany) using premium-coated capillaries to reduce non-specific interaction of the proteins with the glass surface. Both interaction partners (ligand and receptor) were transferred into MST buffer (20 mM Tris-HCl pH 7.5, 200 mM sodium chloride, 1 mM TCEP and 0.05% Tween-20) to avoid artifacts derived from buffer mismatches. […] Data was analyzed using the MO Affinity Analysis Software (Nanotemper).

[1] = target: T3, talin-1 head domain (THD1) (Homo sapiens, UniProt Q9Y490); assay: Microscale thermophoresis (MST), talin-1 head domain; format: binding; conditions: Atto488-labeled β5 cytoplasmic tail 50–200 nM, 20 mM Tris-HCl pH 7.5, 200 mM NaCl, 1 mM TCEP, 0.05% Tween-20, mean±s.d., n≥5
T3 construct: pCoofy17-THD1 (1-405) constructs were transformed into Rosetta2(DE3) cells; His-SUMO (N, cleaved yes); made in house; host or cells: E. coli Rosetta2(DE3)
T3 sequence (Q9Y490 1-405): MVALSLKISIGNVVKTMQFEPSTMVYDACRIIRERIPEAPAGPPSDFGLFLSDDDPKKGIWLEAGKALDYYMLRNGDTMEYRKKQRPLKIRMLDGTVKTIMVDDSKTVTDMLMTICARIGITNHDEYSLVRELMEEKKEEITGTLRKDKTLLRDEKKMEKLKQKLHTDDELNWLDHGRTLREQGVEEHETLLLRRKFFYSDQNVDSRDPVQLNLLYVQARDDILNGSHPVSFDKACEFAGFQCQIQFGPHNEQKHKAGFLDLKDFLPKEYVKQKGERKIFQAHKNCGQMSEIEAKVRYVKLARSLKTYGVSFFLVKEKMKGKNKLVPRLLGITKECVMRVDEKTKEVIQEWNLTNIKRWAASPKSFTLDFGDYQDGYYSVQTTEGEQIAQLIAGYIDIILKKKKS
Description: as §1, with “lysates. […]” for “lysates.”
pCoofy17-THD1 (1-405) constructs were transformed into Rosetta2(DE3) cells and his-SUMO-THD1 proteins were expressed for 16 h at 20°C after induction with 0.4 mm IPTG. Cells were harvested and resuspended in 25 mM Tris-HCl pH 8.0, 10 mM imidazole, 200 mM NaCl, 1 mM TCEP and 5 μg ml^−1 DNase, and lysed by sonication. […]
All MST measurements were performed on a Monolith NT.115 red-blue (Nanotemper, Munich, Germany) using premium-coated capillaries to reduce non-specific interaction of the proteins with the glass surface. […] Data was analyzed using the MO Affinity Analysis Software (Nanotemper). […]

SNX17 = assay: Peptide pulldown, SNX17; format: binding; conditions: desthiobiotin tail peptide on streptavidin beads, RAC-11P lysate, 4°C, 4 h; western blot; two repeats
Procedure: (§2) Peptide pulldowns were carried out as previously described ([Böttcher et al., 2012]) with the mouse β1 wild-type cytoplasmic tail peptide ([…]-OH) and a scrambled peptide ([…]-OH), mouse β3 wild-type tail peptide ([…]-OH), mouse β5 wild-type tail peptide ([…]-OH), β5 Δ8aa tail peptide ([…]-OH) and scrambled peptide […].
(§3) The tail peptides were synthesized de novo with a desthiobiotin on the N-terminus, coupled to Dynabeads MyOne streptavidin C1 (10 mgml^−1, Invitrogen) and incubated with RAC-11P cell lysates (prepared with M-PER reagent, Thermo Fisher Scientific) at 4°C with rotation for 4 h. After three washes with wash buffer (M-PER diluted 1:1 with PBS), bound proteins were eluted in 2× Laemmli buffer at 95°C for 5 min and separated on an 8% SDS-PAGE gel.

[2] = tested on: cytoskeletal or clathrin adaptor proteins; assay: Peptide pulldown, cytoskeletal or clathrin adaptor proteins; format: binding; conditions: desthiobiotin tail peptide on streptavidin beads, RAC-11P lysate, 4°C, 4 h; western blot; two repeats
Procedure: as §2, §3

Numb = assay: Peptide pulldown, Numb; format: binding; conditions: desthiobiotin tail peptide on streptavidin beads, RAC-11P lysate, 4°C, 4 h; western blot; two repeats
Procedure: as §2, §3

ARH = assay: Peptide pulldown, ARH; format: binding; conditions: desthiobiotin tail peptide on streptavidin beads, RAC-11P lysate, 4°C, 4 h; western blot; two repeats
Procedure: as §2, §3

[3] = target: Atto488-labeled integrin β5 cytoplasmic tail; assay: MST; 50–200 nM Atto488-labeled integrin-β cytoplasmic tail as ligand; 20 mM Tris-HCl pH 7.5, 200 mM sodium chloride, 1 mM TCEP, 0.05% Tween-20; Monolith NT.115
[4] = MST, Atto488-labeled β5 cytoplasmic tail 50–200 nM, 20 mM Tris-HCl pH 7.5, 200 mM NaCl, 1 mM TCEP, 0.05% Tween-20, mean±s.d., n≥5
[5] = concentration range tested up to 75 µM for β3

Kd (Numb-PTB (20-175); [4]): 28.5 ± 7.7 µM
Kd (full-length human ARH; [4]): 5.6 ± 1.4 µM
Kd [1]: 41.7 ± 9.5 µM
Molecule: DRREFAKFQSERSRARYEMASNPLYRKPISTHTVDFAFNKFNKSYNGSVD [β5]

Molecule: DRREFAKFQSERSRARYEMASNPLYRKPISTVVNKSYNGSVD-OH [β5 Δ8 aa, β5 tail peptide carrying a deletion of 8 amino acids between the NPxY and NxxY motifs]
interaction with SNX17 in pulldown (SNX17): abrogated
binding of cytoskeletal or clathrin adaptor proteins in pulldown [2]: prevented neither the clustering of β5 in FCLs ([Zuidema et al., 2018]) nor the binding of cytoskeletal or clathrin adaptor proteins to the β5 tail
interaction with Numb in pulldown (Numb): binds considerably more

Molecule: EYEFEPDKVDTGAKGTKMAKNEKKFRNYTVHNIWESRKVAP-OH [β1 scrambled peptide, scrambled β1 tail peptide, control, reference compound]
interaction with ARH in pulldown (ARH): hardly
interaction with Numb in pulldown (Numb): some background binding

Molecule: HDRKEFAKFEEERARAKWDTANNPLYKEATSTFTNITYRGT-OH [β3, synthetic integrin β3 cytoplasmic tail peptide]
binding to Numb by MST (β3) (Numb-PTB (20-175); [5]): no binding; also recorded: unable to detect binding
interaction with SNX17 in pulldown (SNX17): interacted strongly
interaction with ARH in pulldown (ARH): not β1 and β3, bind to Numb and ARH
binding to ARH by MST (β3) (full-length human ARH; [5]): no binding; also recorded: unable to detect binding
interaction with Numb in pulldown (Numb): not β1 and β3, bind to Numb and ARH

Kd [3]: 41.7 µM
Molecule: talin-1 head domain (THD1) (from UniProt P26039 1-405) (domain or fragment)

Kd [3]: 28.5 µM
B1: Numb-PTB (20-175) (domain or fragment)
chain: SRPHQWQTDEEGVRTGKCSFPVKYLGHVEVDESRGMHICEDAVKRLKAERKFFKGFFGKTGKKAVKAVLWVSADGLRVVDEKTKDLIVDQTIEKVSFCAPDRNFDRAFSYICRDGTTRRWICHCFMAVKDTGERLSHAVGCAFAACLERKQKREKE

Kd [3]: 5.6 µM
B2: 6xhis–ARH (natural protein)
chain: MDALKSAGRALIRSPSLAKQSWGGGGRHRKLPENWTDTRETLLEGMLFSLKYLGMTLVEQPKGEELSAAAIKRIVATAKASGKKLQKVTLKVSPRGIILTDNLTNQLIENVSIYRISYCTADKMHDKVFAYIAQSQHNQSLECHAFLCTKRKMAQAVTLTVAQAFKVAFEFWQVSKEEKEKRDKASQEGGDVLGARQDCTPSLKSLVATGNLLDLEETAKAPLSTVSANTTNMDEVPRPQALSGSSVVWELDDGLDEAFSRLAQSRTNPQVLDTGLTAQDMHYAQCLSPVDWDKPDSSGTEQDDLFSF
